Key:
[1] = system: δ globin; test: absolute quantitative RT-PCR, proportion of δ globin mRNA; assay type: cell-based; conditions: primary human erythroid cells, at IC50, 3 days; mock 3.3%
Method: (§1) After 3 days of drug-treatment, the total RNA was extracted by RNA Spin mini kit (Ge-Healthcare) and reverse-transcription was performed by using superscript II (Invitrogen) followed the manufactors instruction. Quantitative PCR was performed on LightCycler with using STBR green master mix followed the manufactors instruction (Roche). The absolute quantitative RT-PCR was calculated by the standard curve with supplying a known copy number of plasmids. The relative quantitative RT-PCR was normalized to the expression levels of the β-actin and compared to the mock control.
To evaluate the specificity of S51021, SS-2394, HU, and NaB in mediating globin genes activation, the amounts of individual P3-liked globin mRNAs were measured by absolute quantitative RT-PCR.
The primary human erythroid cells were treated with HU (145.9 μM), NaB (221.6 μM), S51021 (21.8 μM) or SS2394 (2.3 μM) for 3 days, and the expression levels of each globin mRNA were estimated by absolute quantitative RT-PCR analysis. The proportions of individual 3-like globin chains among the total 3-like globin mRNA are shown. Data are presented as the mean±SEM, N=3.

[2] = system: γ globin gene; test: γ globin gene induction by relative quantitative RT-PCR; assay type: cell-based, human; conditions: for γ globin induction (IC50): Table 3, γ globin mRNA induction fold at the compound's IC50, 3 days
Method: as §1
To search for new agents, which are capable of inducing the expression of γ globin, a series of naphthalimide derivatives with various substituent(s) on the naphthalene ring and the heterocyclic N-atom (A1-A14, B1-B4, C1-C5, D1, and E1-E3, FIG. 2) were synthesized. These derivatives were subjected to evaluating the γ globin induction abilities in differentiated peripheral blood mononuclear cells (PBMCs). The PBMCs isolated from the peripheral blood of donors were expanded and differentiated for a total of 14 days in a two-phase liquid culture. The resulted primary erythoid cells were then treated with different dosages of naphthalimide derivatives individually for another 3 days. The expression levels of the endogenous γ globin gene were estimated by relative quantitative RT-PCR and the proliferation rates of these cells were examined by AlamarBlue cell viability assay. […]; 2-4.5-folds induction of the γ globin gene expression in the compounds-treated cells (FIG. 3).

[3] = system: NF-E4; test: NF-E4 mRNA level by relative quantitative RT-PCR; assay type: cell-based, human; conditions: FIG. 4A; at IC50, 3 days, relative to mock
Method: FIGS. 4A-4D are graphs showing the expression profiles of the γ globin gene and HbF-related regulators after compounds treatment in the primary human erthroid cells. […] Data are presented as the relative expression level in mean±SEM, N=8. […] Upper panel: For detection of the induction level of γ globin, fifty microgram of total cell lysate was analyzed by western blot analysis using antibody against γ globin, or β-actin. Lower panel: The signal intensity was quantified by an image-analyzing software. The intensity of γ globin expression levels of mock control was set as 1. Data are shown as the mean±SEM, N=5. […] Lower panel: The signal was quantified by an image-analyzing software. […] Total RNA was extracted, and the expression level of γ globin gene was analyzed by relative quantitative RT-PCR. […]
After 3 days of drug-treatment, the total RNA was extracted by RNA Spin mini kit (Ge-Healthcare) and reverse-transcription was performed by using superscript II (Invitrogen) followed the manufactors instruction. Quantitative PCR was performed on LightCycler with using STBR green master mix followed the manufactors instruction (Roche). The absolute quantitative RT-PCR was calculated by the standard curve with supplying a known copy number of plasmids. The relative quantitative RT-PCR was normalized to the expression levels of the β-actin and compared to the mock control. […]

[4] = system: histone H4; test: histone H4 acetylation by western blot; assay type: cell-based, human; conditions: FIG. 6; for global acetylation status of histone H4 (total acH4): at IC50, 3 days
Source text: FIG. 6 is a graph showing the acetylation status of histone H4 in primary erythroid cells treating with HU, NaB, S51021 or SS-2394. […] Total histones were extracted by histone extraction buffer. Thirty microgram of histone extract was used for western blot analysis and immunobloted with antibody against histone H4 or acetylated histone H4. Lower panel: The signal intensity was quantified by an image-analyzing software. The intensity of mock control was set as 1. Data are shown as the mean±SEM, N=4.
After 3 days of compound treatment, total protein or histone of the drug-treated cells was extracted. Histone was extracted by histone extraction buffer (10 mM HEPES, 1.5 mM MgCl2, 10 mM KCl, 0.5 mM DTT, 1.5 mM PMSF and 0.2 N HCl) at 4° C. overnight then centrifuged at 13,000 rpm for 5 minutes and collected the supernatant. Thirty microgram of histone extracts were separated in 15% SDS-PAGE and blotted onto PVDF membrane. After blocking with 5% non-fat milk in TBST, the membrane was then incubated with primary antibody against total histone H4 or total acetyl histone H4 at 4° C. overnight. Total protein was extracted by modified RIPA (50 mM Tris-HCl pH7.8, 150 mM NaCl, 1% NP-40, 0.5% sodium deoxycholate, 0.1% SDS, 1 mM EGTA, 5 mM EDTA, 10 mM NaF, 1 mM NaV3O4 and 1× complete, EDTA-free Protease Inhibitor Cocktail). Thirty microgram of total protein extracts were separate by 10% SDS-PAGE and blotted onto PVDF membrane. After blocking with 5% non-fat milk in TBST, the membrane was incubated with primary antibody against BCL11A, p38, p-p38, γ-globin or β-actin at 4° C. overnight. […]
Several HDACi, such as NaB, apicidin, and TSA, have been reported to function as HbF-inducing agents. […] To realize whether the epigenetic modification of histone H4 is manipulated by S51021 or SS-2394 treatment, primary human adult erythroid cells were treated with S51021, SS-2394, HU, or NaB for 3 days, and the acetylation status of cellular histone H4 was then analyzed (FIG. 6).

| SMILES | δ globin proportion of total β-like globin mRNA [1] | γ globin induction (IC50) [2] | EC (μM) induction of HU IC50 (2.3 fold) ([2]; concentration inducing γ globin gene expression 2.3-fold, primary human erythroid cells) | expression level of NF-E4 [3] | histone deacetylase inhibitor or not (conclusion from acH4) [4] | global acetylation status of histone H4 (total acH4) [4] | expression level of γ globin mRNA ([2]; FIG. 4A, at IC50, 3 days, relative to mock) |
| --- | --- | --- | --- | --- | --- | --- | --- |
| NC(=O)NO [HU, hydroxyurea] | 4.5 ± 0.2% | 2.3 fold | 145.9 µM | 0.6 folds | not histone deacetylase inhibitors | not dramatically alternated | – |
| CCCC(=O)[O-].[Na+] [NaB, sodium butyrate] | 1.8 ± 0.1% | 1.3 fold | – | 0.6 folds | – | significantly enhanced | not |
